Legend:
[1] = molecular target: human cathepsin K (UniProt P43236); assay: Cathepsin K Assay (hrbCat K); assay type: biochemical; details: Z-Leu-Arg-AMC substrate, pH 5.5, 15 min preincubation; read-out: hrbCat K (IP (nM))
Summary of the method: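 Human cathepsin K (0.4 nM) was preincubated 15 min at room temperature with compound in 50 mM MES pH 5.5, 2.5 mM EDTA, 2.5 mM DTT and 10% DMSO. Inhibition was fitted to a dose-response model.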

[2] = molecular target: T1, human cathepsin F (Homo sapiens, UniProt Q9UBX1); assay: Cathepsin F assay (hCat F); assay type: biochemical; details: Z-Phe-Arg-AMC substrate, pH 5.5, 15 min preincubation; read-out: hCat F (IP (nM))
T1 sequence (Q9UBX1 271-484): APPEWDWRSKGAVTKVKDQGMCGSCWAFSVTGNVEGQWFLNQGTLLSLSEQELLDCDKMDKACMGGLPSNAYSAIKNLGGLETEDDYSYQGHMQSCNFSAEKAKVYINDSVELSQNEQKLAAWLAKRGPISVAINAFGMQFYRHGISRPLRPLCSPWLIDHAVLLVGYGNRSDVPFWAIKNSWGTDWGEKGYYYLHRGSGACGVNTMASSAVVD
Summary of the method: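 AMC release from Z-Phe-Arg-AMC, added at 8 μM, was monitored fluorometrically (360/460 nm) for 20 min after 10 nM enzyme and compound had been preincubated 15 min at room temperature. Buffer: MES 50 mM pH 5.5, EDTA and DTT 2.5 mM each, 10% DMSO. Compound DMSO dilutions spanned 500–0.025 μM (3-fold). Dose-response fitting gave % inhibition.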

SMILES	IC50 [1] [nM]	IC50 [2] [nM]
N#Cc1ccccc1-c1nc([C@@H]2CCCC[C@H]2C(=O)NC2(C#N)CC2)c(-c2ccc(N3CCS(=O)(=O)CC3)cc2)s1 [Example 79, (1R,2R)-N-(1-cyanocyclopropyl)-2-(2-(2-cyanophenyl)-5-(4-(1,1-dioxidothiomorpho-lino)phenyl)thiazol-4-yl)cyclohexane-carboxamide]	9.3	5750
Cc1cnc(-c2nc([C@@H]3CCCC[C@H]3C(=O)NC3(C#N)CC3)c(-c3ccc(N4CCS(=O)(=O)CC4)cc3)s2)nc1 [Example 82, (1R,2R)-N-(1-cyanocyclopropyl)-2-(5-(4-(1,1-dioxidothiomorpho-lino)phenyl)-2-(5-methylpyrimidin-2-yl)thiazol-4-yl)cyclohexane-carboxamide]	46.4	≥ 10000
Cc1ccc(-c2nc([C@@H]3CCCC[C@H]3C(=O)NC3(C#N)CC3)c(-c3ccc(N4CCS(=O)(=O)CC4)cc3)s2)nn1 [Example 83, (1R,2R)-N-(1-cyanocyclopropyl)-2-(5-(4-(1,1-dioxidothiomorpho-lino)phenyl)-2-(6-methylpyridazin-3-yl)thiazol-4-yl)cyclohexane-carboxamide]	1.4	1110
CS(=O)(=O)C1CN(c2ccc(-c3sc(-c4cncc(Cl)c4)nc3[C@@H]3CCCC[C@H]3C(=O)NC3(C#N)CC3)cc2)C1 [Example 85, (1R,2R)-2-(2-(5-chloropyridin-3-yl)-5-(4-(3-(methylsulfonyl)azetidin-1-yl)phenyl)thiazol-4-yl)-N-(1-cyanocyclopropyl) cyclohexanecarbox-amide]	2.1	1090
N#Cc1cc(Cl)ccc1-c1nc([C@@H]2CCCC[C@H]2C(=O)NC2(C#N)CC2)c(-c2ccc(N3CCS(=O)(=O)CC3)cc2)s1 [Example 87, (1R,2R)-2-(2-(4-chloro-2-cyanophenyl)-5-(4-(1,1-dioxidothiomorpho-lino)phenyl)thiazol-4-yl)-N-(1-cyanocyclopropyl) cyclohexanecarbox-amide]	6.7	7780
N#CC1(NC(=O)[C@@H]2CCCC[C@H]2c2nc(N3CCCCC3)sc2-c2ccc(N3CCS(=O)(=O)CC3)cc2)CC1 [Example 89, (1R,2R)-N-(1-cyanocyclopropyl)-2-(5-(4-(1,1-dioxidothiomorpho-lino)phenyl)-2-(piperidin-1-yl)thiazol-4-yl)cyclohexane-carboxamide]	3	1000
N#CC1(NC(=O)[C@@H]2CCCC[C@H]2c2nc(-c3ccc(C(F)(F)F)cn3)sc2-c2ccc(N3CCS(=O)(=O)CC3)cc2)CC1 [Example 90, (1R,2R)-N-(1-cyanocyclopropyl)-2-(5-(4-(1,1-dioxidothiomorpho-lino)phenyl)-2-(5-(trifluoromethyl)pyridin-2-yl)thiazol-4-yl)cyclohexane-carboxamide]	2.2	1280
Cc1nc(-c2nc([C@@H]3CCCC[C@H]3C(=O)NC3(C#N)CC3)c(-c3ccc(N4CCS(=O)(=O)CC4)cc3)s2)cs1 [Example 91, (1R,2R)-N-(1-cyanocyclopropyl)-2-(5-(4-(1,1-dioxidothiomorpho-lino)phenyl)-2′-methyl-[2,4′-bithiazol]-4-yl)cyclohexane-carboxamide]	3.3	1110
N#CC1(NC(=O)[C@@H]2CCCC[C@H]2c2nc(-c3ccnc(C(F)(F)F)c3)sc2-c2ccc(N3CCS(=O)(=O)CC3)cc2)CC1 [Example 96, (1R,2R)-N-(1-cyanocyclopropyl)-2-(5-(4-(1,1-dioxidothiomorpho-lino)phenyl)-2-(2-(trifluoromethyl)pyridin-4-yl)thiazol-4-yl)cyclohexane-carboxamide]	2.1	1920
COc1cncc(F)c1-c1nc([C@@H]2CCCC[C@H]2C(=O)NC2(C#N)CC2)c(-c2ccc(N3CCS(=O)(=O)CC3)cc2)s1 [Example 97, (1R,2R)-N-(1-cyanocyclopropyl)-2-(5-(4-(1,1-dioxidothiomorpho-lino)phenyl)-2-(3-fluoro-5-methoxypyridin-4-yl)thiazol-4-yl)cyclohexane-carboxamide]	2.8	3080
N#CC1(NC(=O)[C@@H]2CCCC[C@H]2c2nc(-c3cnc(C(F)(F)F)nc3)sc2-c2ccc(N3CCS(=O)(=O)CC3)cc2)CC1 [Example 98, (1R,2R)-N-(1-cyanocyclopropyl)-2-(5-(4-(1,1-dioxidothiomorpho-lino)phenyl)-2-(2-(trifluoromethyl)pyrimidin-5-yl)thiazol-4-yl)cyclohexane-carboxamide]	0.6	1600
CC1(C)CN(c2nc([C@@H]3CCCC[C@H]3C(=O)NC3(C#N)CC3)c(-c3ccc(N4CCS(=O)(=O)CC4)cc3)s2)CC(C)(C)O1 [Example 101, (1R,2R)-N-(1-cyanocyclopropyl)-2-(5-(4-(1,1-dioxidothiomorpho-lino)phenyl)-2-(2,2,6,6-tetramethylmorpho-lino)thiazol-4-yl)cyclohexane-carboxamide]	48.8	≥ 10000

More lines, now with the values ahead:

IC50 [1] [nM]	IC50 [2] [nM]	SMILES
31.6	≥ 10000	N#CC1(NC(=O)[C@@H]2CCCC[C@H]2c2nc(-c3ncc(F)cn3)sc2-c2ccc(N3CCS(=O)(=O)CC3)cc2)CC1 [Example 80, (1R,2R)-N-(1-cyanocyclopropyl)-2-(5-(4-(1,1-dioxidothiomorpho-lino)phenyl)-2-(5-fluoropyrimidin-2-yl)thiazol-4-yl)cyclohexane-carboxamide]
48.4	≥ 10000	COc1cnc(-c2nc([C@@H]3CCCC[C@H]3C(=O)NC3(C#N)CC3)c(-c3ccc(N4CCS(=O)(=O)CC4)cc3)s2)nc1 [Example 81, (1R,2R)-N-(1-cyanocyclopropyl)-2-(5-(4-(1,1-dioxidothiomorpho-lino)phenyl)-2-(5-methoxypyrimidin-2-yl)thiazol-4-yl)cyclohexane-carboxamide]
0.7	1410	N#Cc1ccc(-c2nc([C@@H]3CCCC[C@H]3C(=O)NC3(C#N)CC3)c(-c3ccc(N4CCS(=O)(=O)CC4)cc3)s2)cc1 [Example 84, (1R,2R)-N-(1-cyanocyclopropyl)-2-(2-(4-cyanophenyl)-5-(4-(1,1-dioxidothiomorpho-lino)phenyl)thiazol-4-yl)cyclohexane-carboxamide]
1.8	3330	COc1ccc(-c2nc([C@@H]3CCCC[C@H]3C(=O)NC3(C#N)CC3)c(-c3ccc(N4CCS(=O)(=O)CC4)cc3)s2)cn1 [Example 86, (1R,2R)-N-(1-cyanocyclopropyl)-2-(5-(4-(1,1-dioxidothiomorpho-lino)phenyl)-2-(6-methoxypyridin-3-yl)thiazol-4-yl)cyclohexane-carboxamide]
1.5	1400	N#CC1(NC(=O)[C@@H]2CCCC[C@H]2c2nc(-c3cncc(C(F)(F)F)c3)sc2-c2ccc(N3CCS(=O)(=O)CC3)cc2)CC1 [Example 88, (1R,2R)-N-(1-cyanocyclopropyl)-2-(5-(4-(1,1-dioxidothiomorpho-lino)phenyl)-2-(5-(trifluoromethyl)pyridin-3-yl)thiazol-4-yl)cyclohexane-carboxamide]
3	3330	CC(C)(C)c1ccc(-c2nc([C@@H]3CCCC[C@H]3C(=O)NC3(C#N)CC3)c(-c3ccc(N4CCS(=O)(=O)CC4)cc3)s2)cn1 [Example 92, (1R,2R)-2-(2-(6-(tert-butyl)pyridin-3-yl)-5-(4-(1,1-dioxidothiomorpho-lino)phenyl)thiazol-4-yl)-N-(1-cyanocyclopropyl) cyclohexanecarbox-amide]
14.1	≥ 10000	CC1(C)CC(c2nc([C@@H]3CCCC[C@H]3C(=O)NC3(C#N)CC3)c(-c3ccc(N4CCS(=O)(=O)CC4)cc3)s2)CC(C)(C)O1 [Example 93, (1R,2R)-N-(1-cyanocyclopropyl)-2-(5-(4-(1,1-dioxidothiomorpho-lino)phenyl)-2-(2,2,6,6-tetramethyltetrahydro-2H-pyran-4-yl)thiazol-4-yl)cyclohexane-carboxamide]
5.5	≥ 10000	N#CC1(NC(=O)[C@@H]2CCCC[C@H]2c2nc(-c3c(F)cccc3F)sc2-c2ccc(N3CCS(=O)(=O)CC3)cc2)CC1 [Example 94, (1R,2R)-N-(1-cyanocyclopropyl)-2-(2-(2,6-difluorophenyl)-5-(4-(1,1-dioxidothiomorpho-lino)phenyl)thiazol-4-yl)cyclohexane-carboxamide]
3.6	1120	Cc1cc(C#N)ccc1-c1nc([C@@H]2CCCC[C@H]2C(=O)NC2(C#N)CC2)c(-c2ccc(N3CCS(=O)(=O)CC3)cc2)s1 [Example 95, (1R,2R)-2-(2-(4-cyano-2-methylphenyl)-5-(4-(1,1-dioxidothiomorpho-lino)phenyl)thiazol-4-yl)-N-(1-cyanocyclopropyl) cyclohexanecarbox-amide]
1.7	3330	N#CC1(NC(=O)[C@@H]2CCCC[C@H]2c2nc(-c3cnc(C4CC4)c(F)c3)sc2-c2ccc(N3CCS(=O)(=O)CC3)cc2)CC1 [Example 99, (1R,2R)-N-(1-cyanocyclopropyl)-2-(2-(6-cyclopropyl-5-fluoropyridin-3-yl)-5-(4-(1,1-dioxidothiomorpho-lino)phenyl)thiazol-4-yl)cyclohexane-carboxamide]

Source: patent US9573913B2, “Cathepsin cysteine protease inhibitors” (Merck Sharp & Dohme Corp., priority 2013, dated 2017)
